Consider 2 compounds from PMC6452685, “Lysyl-tRNA synthetase as a drug target in malaria and cryptosporidiosis” (Proceedings of the National Academy of Sciences of the …, 2019).

In general, EC50 refers to the concentration giving half of the maximal effect. Read a high EC50 as a less potent agent.

One assay deals with C. parvum. The assay is described as follows: In vitro Cryptosporidium time-kill curve assay in HCT-8 cells. Type of assay: cell-based. The conditions noted are these: C. parvum in HCT-8 cell culture. On the procedure:
SUPPLEMENTARY INFORMATION ileocecal adenocarcinoma (HCT-8) cel l s (ATC C ) w ere cul t ured i n RP M I 1640 medi um (I nv i t rog en) supplemented with 10% fetal bovine serum (Sigma-Al dri ch), 120 U/ml peni ci l l i n, and 12 0 µg/ml streptomycin (ATCC), and used between passages 9 and 39 for all experiments. Cryptospori di um parvum Iowa isolate oocysts were purchased from Bunch Grass Farm (Deary, ID). Oocys ts were triggered to excyst by treating with 10 mM hydrochloric acid (10 min, 37°C) and the n 2 mM sodium taurocholate (Sigma-Al d r i c h ) i n P B S ( 1 0 m i n , […] ) . They w ere t hen added t o > 95% co nfl uent HC T-8 cel l monol ay ers i n 384-well plates (~5,500 oocysts/well). Ex pe ri me nt al compounds w e re adde d 3 h after i nfecti on, and assay pl ates were incubated for 48 h post-infection at 37°C unde r 5% CO2. Assay pl at es w ere t hen w as hed t h ree t i mes w i t h PBS cont ai ni ng 11 1 mM D-galactose, fixed with 4% parafo rmal dehy de i n PBS, t reat ed f or 10 mi n at 3 7°C w i t h 0. 25% T ri t on X-100, an d s t ai ned w i t h 1. […] […] […] Curves were pl ot t ed and t he hal f-maxi mal effecti ve (EC50) and 90% effecti v e concentrati on (EC90) were cal cul ated us i ng G raphPad Pri s m s oft w are, v ersi on 6. 01. […]
Cryptospori di um parvum elimination during cul ture in HCT-8 cells was measured as recently des cri bed (10). […]

Assay [1] relates to P. berghei liver schizonts. The assay is described as follows: P. berghei liver schizonts (luciferase). In kind it is cell-based. Conditions: Plasmodium berghei. Here is the method:
Thi s i s bas ed on met hods prev i ous l y report ed (12 ). In bri ef, HepG 2-A1 6-CD81EGFP cel l s were cul tured at 3 7 °C i n 5% C O2 in DMEM me dia. For both P. berghei-Luc and HepG2 cytotoxi ci ty assays, 3x 10**3 of the HepG2-A16-CD81EGFP20 cells in 5 µl of assay medi um (DMEM wi thout Phenol Red (Li fe Techn ol ogi es, CA), 5% FBS, and 5x Pen Stre p Gl utami ne (Li fe Techn ol ogi es, CA)) at concentrati o n 6x 10**5 cel l s /ml were s eeded i n white s oli d bottom 153 6-well pl at es (cus t om G NF mol d ref# 7891 73-F, Grei ner Bi o-One), 2 0-26 h prior to sporozoites infection. […]
pri or t o i nfect i on 5 0 nl of comp ounds i n 1:3 s eri al di l ut i ons in DMSO (0. 5% fi nal DMSO concentrati on per w el l ) w ere t rans ferred w i t h an Acous ti c Trans fer Sy s t em (ATS) (Bi os ero) t o the cells. Atovaquone (5µ M) and pu romy ci n (1 0 µM) at a single concentration were used as pos i t i v e cont rol s for the Pbluc and He pG 2tox , res pecti v el y . 0. 5% DMSO was us ed as neg ati v e control for both as s ay s . […]
[…] Immediately after addition of the luminescence reagent, the luminescence was measured by the Env i s i on M ul t il abel Reader (Perk i nEl mer). […]
Thi s is a modification of the previously reported method (13). […]

SMILES strings stand for the structures.

In the case of `C[C@H]1CCC[C@H](C[C@H]2Cc3cc(O)cc(O)c3C(=O)O2)O1` [Compound 1, cladosporin, reference compound], the “time-kill curve, parasite elimination” value in the assay on C. parvum was “eliminated parasites at an exponential rate”.
Turning to `O=C(NCC1(O)CCC(F)(F)CC1)c1cc(=O)c2cc(F)ccc2o1` [Compound 5], the “time-kill curve, parasite elimination” value in the assay on C. parvum was “eliminated parasites at an exponential rate”. Also, the EC50 in assay [1] is 900 nM.
